Laboratory results reported in PMC3491360 (ACS medicinal chemistry letters, 2012).
“Also recorded” adds a separate entry of the source.

How the values were obtained:
hA3AR [1] = target: T1, hA3AR (Homo sapiens, UniProt P0DMS8); conditions: read-out: Affinity (Ki) hA3; CHO cell membranes; ref Melman et al.[19]; cited from earlier work
T1 sequence (P0DMS8 1-318): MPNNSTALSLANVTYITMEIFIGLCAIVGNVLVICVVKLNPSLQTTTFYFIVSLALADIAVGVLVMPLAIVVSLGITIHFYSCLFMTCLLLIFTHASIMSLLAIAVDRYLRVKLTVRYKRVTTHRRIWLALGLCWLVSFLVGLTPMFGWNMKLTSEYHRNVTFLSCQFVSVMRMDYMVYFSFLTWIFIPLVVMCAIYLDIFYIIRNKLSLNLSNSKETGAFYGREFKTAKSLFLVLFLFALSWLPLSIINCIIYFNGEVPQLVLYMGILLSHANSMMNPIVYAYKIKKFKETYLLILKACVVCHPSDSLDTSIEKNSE

hA3AR [2] = target: T1, hA3AR; conditions: at 10 µM, relative to 10 µM NECA (=100%); ref Melman et al.[19]; cited from earlier work
hA1AR = target: T2, hA1AR (Homo sapiens, UniProt P30542); conditions: read-out: Affinity (Ki) hA1; CHO cell membranes; ref Melman et al.[19]; cited from earlier work
T2 sequence (P30542 1-326): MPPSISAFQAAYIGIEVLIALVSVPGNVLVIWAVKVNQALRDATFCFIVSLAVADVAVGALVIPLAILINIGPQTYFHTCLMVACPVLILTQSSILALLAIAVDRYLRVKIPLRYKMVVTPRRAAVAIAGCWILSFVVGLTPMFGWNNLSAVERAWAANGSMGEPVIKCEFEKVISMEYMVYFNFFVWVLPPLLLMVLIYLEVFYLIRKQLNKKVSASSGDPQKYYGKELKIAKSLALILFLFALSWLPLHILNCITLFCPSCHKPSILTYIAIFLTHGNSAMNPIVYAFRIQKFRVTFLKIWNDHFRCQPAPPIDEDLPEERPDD

hA2AAR = hA2AAR (Homo sapiens, UniProt P29274); conditions: read-out: Affinity (Ki) hA2A; HEK293 cell membranes; ref Melman et al.[19]; cited from earlier work
hA2AAR, sequence (P29274 whole entry): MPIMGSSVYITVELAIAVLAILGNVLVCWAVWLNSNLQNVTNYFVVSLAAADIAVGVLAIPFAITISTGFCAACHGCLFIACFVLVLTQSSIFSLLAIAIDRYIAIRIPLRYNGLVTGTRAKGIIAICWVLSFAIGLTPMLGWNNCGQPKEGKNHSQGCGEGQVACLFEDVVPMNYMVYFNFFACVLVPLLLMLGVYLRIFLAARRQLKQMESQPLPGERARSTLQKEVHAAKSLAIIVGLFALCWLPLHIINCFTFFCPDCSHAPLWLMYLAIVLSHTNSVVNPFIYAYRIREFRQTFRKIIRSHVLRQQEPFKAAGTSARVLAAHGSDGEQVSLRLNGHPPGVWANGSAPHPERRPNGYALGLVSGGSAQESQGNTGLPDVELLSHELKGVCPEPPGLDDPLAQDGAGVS

hA3AR [3] = target: T1, hA3AR; format: cell-based; conditions: in words, from cyclic AMP assay at 10 µM

SMILES | functional character at the hA3AR (hA3AR [3]) | also measured
O[C@@H]1[C@H](O)[C@@H]2C[C@@H]2[C@H]1n1cnc2c(NCc3cccc(I)c3)nc(Cl)nc21 [Compound 2a] | – | Ki (hA3AR [1]): 1.44 nM; %Efficacy hA3 (hA3AR [2]): 1.0±3.2%
OC1C(O)C(n2cnc3c(NCc4cccc(Cl)c4)nc(Cl)nc32)C2CC12 (stereo not shown) [Compound 2b] | – | Ki (hA1AR): 3070 nM; Ki (hA2AAR): 4510 nM; %Efficacy hA3 (hA3AR [2]): 2.9±3.7%
CNc1nc(C#Cc2ccccc2Cl)nc2c1ncn2[C@H]1[C@H](O)[C@H](O)[C@@H]2C[C@@H]21 [Compound 5] | antagonists | –
CONc1nc(C#Cc2ccccc2)nc2c1ncn2[C@H]1[C@H](O)[C@H](O)[C@@H]2C[C@@H]21 [Compound 6] | low-efficacy partial agonists | –
O[C@@H]1[C@H](O)[C@@H]2C[C@@H]2[C@H]1n1cnc2c(NCCc3ccccc3)nc(C#Cc3ccccc3Cl)nc21 [Compound 16] | low-efficacy partial agonists | –
CNC(=O)[C@@]12C[C@@H]1[C@@H](n1cnc3c(NCc4cccc(Cl)c4)nc(Cl)nc31)[C@H](O)[C@@H]2O [Compound 1] | – | Ki (hA2AAR): 2300 ± 100 nM
O[C@@H]1[C@H](O)[C@@H]2C[C@@H]2[C@H]1n1cnc2c(NCCc3ccccc3)nc(C#Cc3ccccc3)nc21 [Compound 15] | selective antagonist; also recorded: antagonists | –
O[C@@H]1[C@H](O)[C@@H]2C[C@@H]2[C@H]1n1cnc2c(NCc3cccc(Cl)c3)nc(C#Cc3ccccc3Cl)nc21 [Compound 12] | low-efficacy partial agonists | –
CCNc1nc(C#Cc2ccccc2Cl)nc2c1ncn2[C@H]1[C@H](O)[C@H](O)[C@@H]2C[C@@H]21 [Compound 9] | antagonists | –
CCNc1nc(C#Cc2ccccc2)nc2c1ncn2[C@H]1[C@H](O)[C@H](O)[C@@H]2C[C@@H]21 [Compound 8] | antagonists | –
